According to patent US20080188503A1, “New Compounds II” (AstraZenaca AB, priority 2006, published 2008):

Target: T1, recombinant human GSK3β (Homo sapiens, UniProt P49841)
T1 construct: purchased Dundee University, UK
Assay: GSK3β Scintillation Proximity Assay (ATP competition)
Format: biochemical
Settings: recombinant human GSK3β SPA; 1 μM ATP, 1 μM biotinylated peptide substrate; Ki calculated with Km of ATP 20 μM
Description: Determination of ATP Competition in Scintillation Proximity GSK3β Assay.
GSK3β Scintillation Proximity Assay.
The competition experiments were carried out in duplicate with 10 different concentrations of the inhibitors in clear-bottom microtiter plates (Wallac, Finland). A biotinylated peptide substrate, Biotin-Ala-Ala-Glu-Glu-Leu-Asp-Ser-Arg-Ala-Gly-Ser(PO3H2)-Pro-Gln-Leu (AstraZeneca, Lund), was added at a final concentration of 1 μM in an assay buffer containing 1 mU recombinant human GSK3β (Dundee University, UK), 12 mM morpholinepropanesulfonic acid (MOPS), pH 7.0, 0.3 mM EDTA, 0.01% β-mercaptoethanol, 0.004% Brij 35 (a […] detergent), 0.5% glycerol and 0.5 μg BSA/25 μl. The reaction was initiated by the addition of 0.04 μCi [γ-^33P]ATP (Amersham, UK) and unlabelled ATP at a final concentration of 1 μM and assay volume of 25 μl. After incubation for 20 minutes at room temperature, each reaction was terminated by the addition of 25 μl stop solution containing 5 mM EDTA, 50 μM ATP, 0.1% Triton X-100 and 0.25 mg streptavidin coated Scintillation Proximity Assay (SPA) beads (Amersham, UK). After 6 hours the radioactivity was determined in a liquid scintillation counter (1450 MicroBeta Trilux, Wallac). The inhibition curves were analysed by non-linear regression using GraphPad Prism, USA. The Km value of ATP for GSK3β, used to calculate the inhibition constants (Ki) of the various compounds, was 20 μM.

T1 sequence (P49841 whole entry): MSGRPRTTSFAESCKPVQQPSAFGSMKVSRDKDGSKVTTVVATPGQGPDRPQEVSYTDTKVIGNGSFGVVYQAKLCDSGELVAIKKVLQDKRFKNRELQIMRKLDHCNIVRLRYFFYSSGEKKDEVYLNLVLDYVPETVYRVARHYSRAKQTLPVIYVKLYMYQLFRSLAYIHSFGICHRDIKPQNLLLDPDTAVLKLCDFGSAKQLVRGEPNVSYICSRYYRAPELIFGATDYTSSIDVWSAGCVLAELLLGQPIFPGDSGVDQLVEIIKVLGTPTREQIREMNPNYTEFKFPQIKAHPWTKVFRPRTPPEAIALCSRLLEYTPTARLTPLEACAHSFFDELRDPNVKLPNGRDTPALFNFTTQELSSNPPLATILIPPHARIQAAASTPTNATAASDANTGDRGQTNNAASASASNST

| Structure (SMILES) | Ki |
| --- | --- |
| COc1cccc(Nc2ncc(F)c(-c3cnc(C)n3C3CCOCC3)n2)n1 [Example 3, 5-Fluoro-N-(6-methoxypyridin-2-yl)-4-[2-methyl-1-(tetrahydro-2H-pyran-4-yl)-1H-imidazol-5-yl]pyrimidin-2-amine] | 0.53 µM |
| Cc1ncc(-c2nc(Nc3ccc(C(F)(F)F)cn3)ncc2F)n1C1CCOCC1 [Example 4, 5-Fluoro-4-[2-methyl-1-(tetrahydro-2H-pyran-4-yl)-1H-imidazol-5-yl]-N-[5-(trifluoromethyl)pyridin-2-yl]pyrimidin-2-amine] | 2.6 µM |
| COc1ccnc(Nc2ncc(F)c(-c3cnc(C)n3C3CCOCC3)n2)c1 [Example 6, 5-Fluoro-N-(4-methoxypyridin-2-yl)-4-[2-methyl-1-(tetrahydro-2H-pyran-4-yl)-1H-imidazol-5-yl]pyrimidin-2-amine] | 1.1 µM |
| Cc1ncc(-c2nc(Nc3ccc(CN4CCCCC4)nc3)ncc2F)n1C1CCOCC1 [Example 12, 5-Fluoro-4-[2-methyl-1-(tetrahydro-2H-pyran-4-yl)-1H-imidazol-5-yl]-N-[6-(piperidin-1-ylmethyl)pyridin-3-yl]pyrimidin-2-amine] | 0.26 µM |
| Cc1ncc(-c2nc(Nc3ccc(CN4CC(C)OC(C)C4)nc3)ncc2F)n1C1CCOCC1 (stereo not shown) [Example 17, N-{6-[(2,6-Dimethylmorpholin-4-yl)methyl]pyridin-3-yl}-5-fluoro-4-[2-methyl-1-(tetrahydro-2H-pyran-4-yl)-1H-imidazol-5-yl]pyrimidin-2-amine] | 0.76 µM |
| Cc1ncc(-c2nc(Nc3ccc(CN4CCCC(CO)C4)nc3)ncc2F)n1C1CCOCC1 (stereo not shown) [Example 23, (1-{[5-({5-Fluoro-4-[2-methyl-1-(tetrahydro-2H-pyran-4-yl)-1H-imidazol-5-yl]pyrimidin-2-yl}amino)pyridin-2-yl]methyl}piperidin-3-yl)methanol] | 0.17 µM |
| Cc1ncc(-c2nc(Nc3ccc(CNCCCN4CCCC4=O)nc3)ncc2F)n1C1CCOCC1 [Example 24, 1-[3-({[5-({5-Fluoro-4-[2-methyl-1-(tetrahydro-2H-pyran-4-yl)-1H-imidazol-5-yl]pyrimidin-2-yl}amino)pyridin-2-yl]methyl}amino)propyl]pyrrolidin-2-one] | 0.23 µM |
| Cc1ncc(-c2nc(Nc3ccc(CN4CCC(N5CCCC5)CC4)nc3)ncc2F)n1C1CCOCC1 [Example 25, 5-Fluoro-4-[2-methyl-1-(tetrahydro-2H-pyran-4-yl)-1H-imidazol-5-yl]-N-{6-[(4 pyrrolidin-1-ylpiperidin-1-yl)methyl]pyridin-3-yl}pyrimidin-2-amine] | 0.21 µM |
| CCN(CCOC)Cc1ccc(Nc2ncc(F)c(-c3cnc(C)n3C3CCOCC3)n2)cn1 [Example 28, N-(6-{[Ethyl(2-methoxyethyl)amino]methyl}pyridin-3-yl)-5-fluoro-4-[2-methyl-1-(tetrahydro-2H-pyran-4-yl)-1H-imidazol-5-yl]pyrimidin-2-amine] | 0.28 µM |
| Cc1ncc(-c2nc(Nc3ccc(CNCC#N)nc3)ncc2F)n1C1CCOCC1 [Example 29, ({[5-({5-Fluoro-4-[2-methyl-1-(tetrahydro-2H-pyran-4-yl)-1H-imidazol-5-yl]pyrimidin-2-yl}amino)pyridin-2-yl]methyl}amino)acetonitrile] | 0.048 µM |
| Cc1ncc(-c2nc(NC3CCN(C(=O)OC(C)(C)C)CC3)ncc2F)n1C1CCOCC1 [Example 33, tert-Butyl 4-({5-fluoro-4-[2-methyl-1-(tetrahydro-2H-pyran-4-yl)-1H-imidazol-5-yl]pyrimidin-2-yl}amino)piperidine-1-carboxylate] | 0.21 µM |

More lines, in order of falling Ki, values ahead:

| Ki | Structure (SMILES) |
| --- | --- |
| 1.3 µM | COC[C@@H]1CCCN1Cc1ccc(Nc2ncc(F)c(-c3cnc(C)n3C3CCOCC3)n2)cn1 [Example 15, 5-Fluoro-N-(6-{[(2S)-2-(methoxymethyl)pyrrolidin-1-yl]methyl}pyridin-3-yl)-4-[2-methyl-1-(tetrahydro-2H-pyran-4-yl)-1H-imidazol-5-yl]pyrimidin-2-amine] |
| 0.33 µM | Cc1ncc(-c2nc(Nc3ccc(CN4CCC4)nc3)ncc2F)n1C1CCOCC1 [Example 27, N-[6-(Azetidin-1-ylmethyl)pyridin-3-yl]-5-fluoro-4-[2-methyl-1-(tetrahydro-2H-pyran-4-yl)-1H-imidazol-5-yl]pyrimidin-2-amine] |
| 0.29 µM | Cc1ncc(-c2nc(Nc3ccc(CN4CCCN(C)CC4)nc3)ncc2F)n1C1CCOCC1 [Example 13, 5-Fluoro-N-{6-[(4-methyl-1,4-diazepan-1-yl)methyl]pyridin-3-yl}-4-[2-methyl-1-(tetrahydro-2H-pyran-4-yl)-1H-imidazol-5-yl]pyrimidin-2-amine] |
| 0.22 µM | Cc1ncc(-c2nc(Nc3cncnc3)ncc2F)n1C1CCOCC1 [Example 1, 5-Fluoro-4-[2-methyl-1-(tetrahydro-2H-pyran-4-yl)-1H-imidazol-5-yl]-N-pyrimidin-5-ylpyrimidin-2-amine] |
| 0.21 µM | Cc1ncc(-c2nc(Nc3ccc(CN4CCCC4)nc3)ncc2F)n1C1CCOCC1 [Example 19, 5-Fluoro-4-[2-methyl-1-(tetrahydro-2H-pyran-4-yl)-1H-imidazol-5-yl]-N-[6-(pyrrolidin-1-ylmethyl)pyridin-3-yl]pyrimidin-2-amine] |
| 0.2 µM | Cc1ncc(-c2nc(Nc3cncc4ccccc34)ncc2F)n1C1CCOCC1 [Example 30, {5-Fluoro-4-[2-methyl-3-(tetrahydro-pyran-4-yl)-3H-imidazol-4-yl]-pyrimidin-2-yl}-isoquinolin-4-yl-amine] |
| 0.15 µM | COC1CCN(Cc2ccc(Nc3ncc(F)c(-c4cnc(C)n4C4CCOCC4)n3)cn2)CC1 [Example 22, 5-Fluoro-N-{6-[(4-methoxypiperidin-1-yl)methyl]pyridin-3-yl}-4-[2-methyl-1-(tetrahydro-2H-pyran-4-yl)-1H-imidazol-5-yl]pyrimidin-2-amine] |
| 0.079 µM | Cc1ncc(-c2nc(Nc3ccc(CN4CCCOCC4)nc3)ncc2F)n1C1CCOCC1 [Example 21, 5-Fluoro-4-[2-methyl-1-(tetrahydro-2H-pyran-4-yl)-1H-imidazol-5-yl]-N-[6-(1,4 oxazepan-4-ylmethyl)pyridin-3-yl]pyrimidin-2-amine] |
| 0.075 µM | CC(=O)N1CCCN(Cc2ccc(Nc3ncc(F)c(-c4cnc(C)n4C4CCOCC4)n3)cn2)CC1 [Example 16, N-{6-[(4-Acetyl-1,4-diazepan-1-yl)methyl]pyridin-3-yl}-5-fluoro-4-[2-methyl-1-(tetrahydro-2H-pyran-4-yl)-1H-imidazol-5-yl]pyrimidin-2-amine] |
| 0.075 µM | Cc1ncc(-c2nc(Nc3ccc(CN(CCC#N)CC4CCCO4)nc3)ncc2F)n1C1CCOCC1 (stereo not shown) [Example 26, 3-[{[5-({5-Fluoro-4-[2-methyl-1-(tetrahydro-2H-pyran-4-yl)-1H-imidazol-5-yl]pyrimidin-2-yl}amino)pyridin-2-yl]methyl}(tetrahydrofuran-2-ylmethyl)amino]propanenitrile] |
| 0.064 µM | Cc1ncc(-c2nc(Nc3ccc(CN4CCOCC4)nc3)ncc2F)n1C1CCOCC1 [Example 10, 5-Fluoro-4-[2-methyl-1-(tetrahydro-2H-pyran-4-yl)-1H-imidazol-5-yl]-N-[6-(morpholin-4-ylmethyl)pyridin-3-yl]pyrimidin-2-amine] |
| 0.049 µM | CC(=O)c1cncc(Nc2ncc(F)c(-c3cnc(C)n3C3CCOCC3)n2)c1 [Example 2, 1-[5-({5-Fluoro-4-[2-methyl-1-(tetrahydro-2H-pyran-4-yl)-1H-imidazol-5-yl]pyrimidin-2-yl}amino)pyridin-3-yl]ethanone] |
| 0.042 µM | Cc1ncc(-c2nc(Nc3ccc(CN4CCC(F)(F)CC4)nc3)ncc2F)n1C1CCOCC1 [Example 18, N-{6-[(4,4-Difluoropiperidin-1-yl)methyl]pyridin-3-yl}-5-fluoro-4-[2-methyl-1-(tetrahydro-2H-pyran-4-yl)-1H-imidazol-5-yl]pyrimidin-2-amine] |
| 0.039 µM | Cc1ncc(-c2nc(Nc3ccncc3)ncc2F)n1C1CCOCC1 [Example 31, {5-Fluoro-4-[2-methyl-3-(tetrahydro-pyran-4-yl)-3H-imidazol-4-yl]-pyrimidin-2-yl}-pyridin-4-yl-amine] |
| 0.037 µM | Cc1ncc(-c2nc(Nc3ccc(CNCc4ccc(Cl)nc4)nc3)ncc2F)n1C1CCOCC1 [Example 20, N-[6-({[(6-Chloropyridin-3-yl)methyl]amino}methyl)pyridin-3-yl]-5-fluoro-4-[2-methyl-1-(tetrahydro-2H-pyran-4-yl)-1H-imidazol-5-yl]pyrimidin-2-amine] |
| 0.028 µM | Cc1ccc(Nc2ncc(F)c(-c3cnc(C)n3C3CCOCC3)n2)cn1 [Example 5, 5-Fluoro-N-(6-methylpyridin-3-yl)-4-[2-methyl-1-(tetrahydro-2H-pyran-4-yl)-1H-imidazol-5-yl]pyrimidin-2-amine] |
| 0.01 µM | Cc1ncc(-c2nc(Nc3ccc(CN4CCN(c5ncccn5)CC4)nc3)ncc2F)n1C1CCOCC1 [Example 14, 5-Fluoro-4-[2-methyl-1-(tetrahydro-2H-pyran-4-yl)-1H-imidazol-5-yl]-N-{6-[(4 pyrimidin-2-ylpiperazin-1-yl)methyl]pyridin-3-yl}pyrimidin-2-amine] |
